Measurements published in BindingDB's records for doi:10.1021/jm0000416 (University of Paris, 2000).
Numbered stars: 1 amine (or outer) side, 2 acyl side, 3 side chain; on linkers, the order of the positions; unused ones are H or OH. Square brackets hold non-standard residues; d marks the D form. Peptide text beside a SMILES is read from it. * marks the point of attachment. Heptanedioyl = O=C(CCCCCC(=O)[*:2])[*:1]; NMeNle = CCCC[C@H](NC)C(=O)O; Malonamoyl = NC(=O)CC(=O)*; Methoxyacetyl = COCC(=O)*; Isobutyryl = CC(C)C(=O)*; X3 = O=C(CS(=O)(=O)O)*; Boc = CC(C)(C)OC(=O)*; X2 = COC(=O)CC(=O)*; X4 = CC(=O)CC(=O)*; βAla = NCCC(=O)O

Molecular target: Gastrin/cholecystokinin type B receptor (Cavia porcellus)
Assay: Binding affinity against cholecystokinin type B receptor on guinea pig cortex.

SMILES | Ki
CCCC[C@@H](C(=O)N[C@@H](CC(=O)O)C(=O)N[C@@H](Cc1ccccc1)C(N)=O)N(C)C(=O)[C@H](Cc1c[nH]c2ccccc12)NC(=O)[C@H](C)N [3-(2-{[2-(2-Amino-propionylamino)-3-(1H-indol-3-yl)-propionyl]-methyl-amino}-hexanoylamino)-N-(1-carbamoyl-2-phenyl-ethyl)-succinamic acid] | 20 nM
CCCC[C@@H](C(=O)N[C@@H](CC(=O)O)C(=O)N[C@@H](Cc1ccccc1)C(N)=O)N(C)C(=O)[C@H](Cc1c[nH]c2ccccc12)NC(=O)CC(N)=O [3-(2-{[2-(2-Carbamoyl-acetylamino)-3-(1H-indol-3-yl)-propionyl]-methyl-amino}-hexanoylamino)-N-(1-carbamoyl-2-phenyl-ethyl)-succinamic acid] (Malonamoyl-W[NMeNle]DF-NH2) | 2.05 nM
CCCC[C@@H](C(=O)N[C@@H](CC(=O)O)C(=O)N[C@@H](Cc1ccccc1)C(N)=O)N(C)C(=O)[C@H](Cc1c[nH]c2ccccc12)NC(=O)CCN [3-(2-{[2-(3-Amino-propionylamino)-3-(1H-indol-3-yl)-propionyl]-methyl-amino}-hexanoylamino)-N-(1-carbamoyl-2-phenyl-ethyl)-succinamic acid] (H-[βAla]W[NMeNle]DF-NH2) | 95 nM
CCCC[C@@H](C(=O)N[C@@H](CC(=O)O)C(=O)N[C@@H](Cc1ccccc1)C(N)=O)N(C)C(=O)[C@H](Cc1c[nH]c2ccccc12)NC(=O)CCNC(=O)OC(C)(C)C [3-(2-{[2-(3-tert-Butoxycarbonylamino-propionylamino)-3-(1H-indol-3-yl)-propionyl]-methyl-amino}-hexanoylamino)-N-(1-carbamoyl-2-phenyl-ethyl)-succinamic acid] ({Boc-βAla}-W[NMeNle]DF-NH2) | 1.35 nM
CCCC[C@@H](C(=O)N[C@@H](CC(=O)O)C(=O)N[C@@H](Cc1ccccc1)C(N)=O)N(C)C(=O)[C@@H](N)Cc1c[nH]c2ccccc12 [3-(2-{[2-Amino-3-(1H-indol-3-yl)-propionyl]-methyl-amino}-hexanoylamino)-N-(1-carbamoyl-2-phenyl-ethyl)-succinamic acid] (H-W[NMeNle]DF-NH2) | 2.6 nM
CCCC[C@@H](C(=O)N[C@@H](CC(=O)O)C(=O)N[C@@H](Cc1ccccc1)C(N)=O)N(C)C(=O)[C@H](Cc1c[nH]c2ccccc12)NC(=O)CCCCCC(=O)O [6-[1-({1-[1-(1-Carbamoyl-2-phenyl-ethylcarbamoyl)-2-carboxy-ethylcarbamoyl]-pentyl}-methyl-carbamoyl)-2-(1H-indol-3-yl)-ethylcarbamoyl]-hexanoic acid] (Heptanedioyl-W[NMeNle]DF-NH2) | 992 nM
CCCC[C@@H](C(=O)N[C@@H](CC(=O)O)C(=O)N[C@@H](Cc1ccccc1)C(N)=O)N(C)C(=O)[C@H](Cc1c[nH]c2ccccc12)NC(=O)COC [N-(1-Carbamoyl-2-phenyl-ethyl)-3-(2-{[3-(1H-indol-3-yl)-2-(2-methoxy-acetylamino)-propionyl]-methyl-amino}-hexanoylamino)-succinamic acid] (Methoxyacetyl-W[NMeNle]DF-NH2) | 2.52 nM
CCCC[C@@H](C(=O)N[C@@H](CC(=O)O)C(=O)N[C@@H](Cc1ccccc1)C(N)=O)N(C)C(=O)[C@H](Cc1c[nH]c2ccccc12)NC(=O)CC(=O)OC [N-(1-Carbamoyl-2-phenyl-ethyl)-3-(2-{[3-(1H-indol-3-yl)-2-(2-methoxycarbonyl-acetylamino)-propionyl]-methyl-amino}-hexanoylamino)-succinamic acid] (X2-W[NMeNle]DF-NH2) | 3.61 nM
CCCC[C@@H](C(=O)N[C@@H](CC(=O)O)C(=O)N[C@@H](Cc1ccccc1)C(N)=O)N(C)C(=O)[C@H](Cc1c[nH]c2ccccc12)NC(=O)CS(=O)(=O)O [N-(1-Carbamoyl-2-phenyl-ethyl)-3-(2-{[3-(1H-indol-3-yl)-2-(2-sulfo-acetylamino)-propionyl]-methyl-amino}-hexanoylamino)-succinamic acid] (X3-W[NMeNle]DF-NH2) | 0.54 nM
CCCC[C@@H](C(=O)N[C@@H](CC(=O)O)C(=O)N[C@@H](Cc1ccccc1)C(N)=O)N(C)C(=O)[C@H](Cc1c[nH]c2ccccc12)NC(=O)CC(C)=O [N-(1-Carbamoyl-2-phenyl-ethyl)-3-(2-{[3-(1H-indol-3-yl)-2-(3-oxo-butyrylamino)-propionyl]-methyl-amino}-hexanoylamino)-succinamic acid] (X4-W[NMeNle]DF-NH2) | 3.84 nM
CCCC[C@@H](C(=O)N[C@@H](CC(=O)O)C(=O)N[C@@H](Cc1ccccc1)C(N)=O)N(C)C(=O)[C@H](Cc1c[nH]c2ccccc12)NC(=O)C(C)C [N-(1-Carbamoyl-2-phenyl-ethyl)-3-(2-{[3-(1H-indol-3-yl)-2-isobutyrylamino-propionyl]-methyl-amino}-hexanoylamino)-succinamic acid] (Isobutyryl-W[NMeNle]DF-NH2) | 1.37 nM
